Data as given in patent publication US10005773B2, “1-(4-pyrimidinyl)-1H-pyrrolo[3,2-c]pyridine derivatives as NIK inhibitors” (Janssen Pharmaceutica NV, priority 2013, dated 2018).

Legend:
[1] = system: P-IKKα levels in L363 cells; experiment: Biological Assay B: effect of compounds on P-IKKα levels in L363 cells; format: cell-based; details: Homo sapiens, L-363, BAFF stimulated, 2 hr treatment, averaged over all batches, read-out: IKKα Cellular IC50
Procedure: Effect of Compounds on P-IKKα Levels in L363 Cells
All compounds tested were dissolved in DMSO and further dilutions were made in culture medium. Final DMSO concentration was 1% (v/v) in cell assays. The human L363 cells (ATCC) were cultured in RPMI 1640 medium supplemented with GlutaMax and 10% fetal calf serum (PAA). Cells were routinely maintained at densities of 0.2×10^6 cells per ml-1×10^6 cells per ml at 37° C. in a humidified 5% CO2 atmosphere. Cells were passaged twice a week splitting back to obtain the low density. Cells were seeded in 96 well plates (Nunc 167008) at 2×10^6 per ml media in a volume of 75 μl per well plus 25 μl 1 μg/ml recombinant human B-cell activating factor (BAFF/BLyS/TNFSF13B). Seeded cells were incubated at 37° C. in a humidified 5% CO2 atmosphere for 24 hr. Drugs and/or solvents were added (20 μl) to a final volume of 120 μl. Following 2 hr treatment plates were removed from the incubator and cell lysis was achieved by the addition of 30 μl 5× lysis buffer followed by shaking on a plate shaker at 4° C. for 10 min. At the end of this incubation lysed cells were centrifuged at 800×g for 20 min at 4° C. and the lysate was assessed for P-IKKα levels by sandwich immuno-assay carried out in anti-rabbit antibody coated Mesoscale plates. Within an experiment, the results for each treatment were the mean of 2 replicate wells. For initial screening purposes, compounds were tested using an 8 point dilution curve (serial 1:3 dilutions). For each experiment, controls (containing MG132 and BAFF but no test drug) and a blank incubation (containing MG132 and BAFF and 10 μM ADS125117, a test concentration known to give full inhibition) were run in parallel. The blank incubation value was subtracted from all control and sample values. To determine the IC50 a sigmoidal curve was fitted to the plot of % inhibition of control P-IKKα levels versus Log10 compound concentration.

[2] = molecular target: T1, Recombinant Human NF-kappaB-Inducing Kinase (NIK/MAP3K14) (Homo sapiens, UniProt Q99558); experiment: Biological Assay A: inhibition of recombinant human NIK/MAP3K14 activity (MSD, MBP substrate); details: 25 μM ATP, 10 nM NIK/MAP3K14, 1 h at 25° C.; averaged over all batches; read-out: Biochemical (MSD MBP) IC50
T1 sequence (Q99558 whole entry): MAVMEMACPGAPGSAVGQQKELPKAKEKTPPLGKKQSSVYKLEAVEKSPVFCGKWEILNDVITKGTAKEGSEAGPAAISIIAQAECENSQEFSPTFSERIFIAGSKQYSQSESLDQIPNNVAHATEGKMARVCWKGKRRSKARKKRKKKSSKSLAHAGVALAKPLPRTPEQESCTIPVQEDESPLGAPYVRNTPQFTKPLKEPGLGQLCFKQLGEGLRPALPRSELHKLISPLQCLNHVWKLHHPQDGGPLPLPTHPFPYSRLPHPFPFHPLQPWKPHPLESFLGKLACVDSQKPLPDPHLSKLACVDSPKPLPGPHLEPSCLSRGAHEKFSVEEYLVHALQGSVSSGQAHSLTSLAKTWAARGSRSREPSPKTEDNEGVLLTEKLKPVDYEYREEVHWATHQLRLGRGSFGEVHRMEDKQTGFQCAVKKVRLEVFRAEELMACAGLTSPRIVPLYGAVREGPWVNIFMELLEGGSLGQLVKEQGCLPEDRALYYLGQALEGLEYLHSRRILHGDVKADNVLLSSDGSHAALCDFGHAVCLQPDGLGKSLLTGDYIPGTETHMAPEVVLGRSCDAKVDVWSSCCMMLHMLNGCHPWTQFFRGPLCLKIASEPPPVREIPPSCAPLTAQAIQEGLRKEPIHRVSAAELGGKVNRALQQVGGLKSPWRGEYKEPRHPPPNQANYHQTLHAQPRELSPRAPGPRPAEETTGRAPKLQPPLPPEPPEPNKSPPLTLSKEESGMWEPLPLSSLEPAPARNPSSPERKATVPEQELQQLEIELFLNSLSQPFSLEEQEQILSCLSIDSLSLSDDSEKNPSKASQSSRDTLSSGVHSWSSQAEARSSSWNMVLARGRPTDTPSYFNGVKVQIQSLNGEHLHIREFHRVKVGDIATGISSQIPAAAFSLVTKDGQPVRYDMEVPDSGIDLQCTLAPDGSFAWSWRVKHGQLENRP
Procedure: Inhibition of Recombinant Human NF-kappaB-Inducing Kinase (NIKIMAP3K14) Activity
Assay buffer was 50 mM Tris pH 7.5 containing 1 mM ethylene glycol tetraacetic acid (EGTA), 1 mM dithiothreitol (DTT), 0.1 mM Na3VO4, 5 mM MgCl2, 0.01% Tween® 20. Assays were carried out in 384 well Mesoscale high binding plates which had been coated with myelin basic protein (MBP) and blocked with bovine serum albumin to prevent non-specific protein binding. All compounds tested were dissolved in dimethyl sulfoxide (DMSO) and further dilutions were made in assay buffer. Final DMSO concentration was 1% (v/v) in assays. Incubations consisted of compound (1% DMSO in control and blank wells), 25 μM Adenosine-5′-triphosphate (ATP), and 10 nM NIK/MAP3K14 substituting enzyme with buffer in the blank wells. Incubations were carried out for 1 h at 25° C. and were followed by washing and sequential incubation with rabbit anti-phospho-MBP and anti-rabbit Ig Sulfotag antibody before reading bound Sulfotag on a Mesoscale Discovery. Signal obtained in the wells containing blank samples was subtracted from all other wells and IC50's were determined by fitting a sigmoidal curve to % inhibition of control versus Log10 compound concentration.

L-363 cells = experiment: Biological Assay C: antiproliferative activity on L-363 cells (CellTiter-Glo); format: cell-based; details: Homo sapiens, 72 hr treatment
Procedure: (§1) Determination of Antiproliferative Activity on LP-1, L-363 and JJN-3 Cells
(§2) All compounds tested were dissolved in DMSO and further dilutions were made in culture medium. Final DMSO concentration was 0.3% (v/v) in cell proliferation assays. Viability was assessed using CellTiter-Glo cell viability assay kit (Promega). The human LP-1, L-363 and JJN-3 cells (DSMZ) were cultured in RPMI 1640 medium supplemented with 2 mM L-glutamine, and 10% fetal calf serum (PAA). Cells were routinely kept as suspension cells at 37° C. in a humidified 5% CO2 atmosphere. Cells were passaged at a seeding density of 0.2×10^6/ml twice a week. Cells were seeded in black tissue culture treated 96-well plates (Perkin Elmer). Densities used for plating ranged from 2,000 to 6,000 cells per well in a total volume of 75 μl medium. After twenty four hours, drugs and/or solvents were added (25 μl) to a final volume of 100 μl. Following 72 hr of treatment plates were removed from the incubator and allowed to equilibrate to room temperature for approx 10 min. 100 μl CellTiter-Glo reagent was added to each well that was then covered (Perkin Elmer Topseal) and shaken on plate shaker for 10 min. Luminescence was measured on a HTS Topcount (Perkin Elmer). Within an experiment, the results for each treatment were the mean of 2 replicate wells. For initial screening purposes, compounds were tested using a 9 point dilution curve (serial 1:3 dilutions). For each experiment, controls (containing no drug) and a blank incubation (containing cells read at the time of compound addition) were run in parallel. The blank value was subtracted from all control and sample values. For each sample, the mean value for cell growth (in relative light units) was expressed as a percentage of the mean value for cell growth of the control.

[3] = molecular target: T1, Recombinant Human NF-kappaB-Inducing Kinase (NIK/MAP3K14); experiment: Biological Assay A2: inhibition of auto-phosphorylation of recombinant human NIK/MAP3K14 (AlphaScreen); format: biochemical; details: 25 microM ATP, 0.2 nM NIK/MAP3K14, 1 h at 25° C., averaged over all batches, read-out: Alpha-Screen IC50
Procedure: Inhibition of Auto-Phosphorylation of Recombinant Human NF-kappaB-Inducing Kinase (NIKIMAP3K14) Activity (AlphaScreen®)
NIK/MAP3K14 auto-phosphorylation activity was measured using the AlphaScreen® (ascreen) format (Perkin Elmer). All compounds tested were dissolved in dimethyl sulfoxide (DMSO) and further dilutions were made in assay buffer. Final DMSO concentration was 1% (v/v) in assays. Assay buffer was 50 mM Tris pH 7.5 containing 1 mM EGTA (ethylene glycol tetraacetic acid), 1 mM DTT (dithiothreitol), 0.1 mM Na3VO4, 5 mM MgCl2, 0.01% Tween® 20. Assays were carried out in 384 well Alphaplates (Perkin Elmer). Incubations consisted of compound, 25 microM Adenosine-5′-triphosphate (ATP), and 0.2 nM NIK/MAP3K14. Incubations were initiated by addition of GST-tagged NIK/MAP3K14 enzyme, carried out for 1 h at 25° C. and terminated by addition of stop buffer containing anti-phospho-IKK Ser176/180 antibody. Protein A Acceptor and Glutathione-Donor beads were added before reading using an EnVision® Multilabel Plate Reader (Perkin Elmer). Signal obtained in the wells containing blank samples was subtracted from all other wells and IC50's were determined by fitting a sigmoidal curve to % inhibition of control versus Log10 compound concentration.

JJN-3 cells = experiment: Biological Assay C: antiproliferative activity on JJN-3 cells (CellTiter-Glo); format: cell-based; details: Homo sapiens, 72 hr treatment
Procedure: as §1, §2

LP-1 cells = experiment: Biological Assay C: antiproliferative activity on LP-1 cells (CellTiter-Glo); format: cell-based; details: Homo sapiens, 72 hr treatment
Procedure: as §1, §2

Structure (SMILES): CC(C)(O)C#Cc1cc2c(cn1)c(CC#N)cn2-c1ccnc(N)n1 [Compound 20]
- IC50 [1]: 55 nM
- IC50 [2]: 13 nM
- EC50 (L-363 cells): 319 nM
- IC50 [3]: 26 nM
- EC50 (JJN-3 cells): 190 nM
- EC50 (LP-1 cells): 1280 nM

Structure (SMILES): CCc1cn(-c2ccnc(N)n2)c2cc(C#CC(C)(C)O)ncc12 [Compound 21]
- IC50 [1]: 9.5 nM
- IC50 [2]: 11 nM
- EC50 (L-363 cells): 44 nM
- IC50 [3]: 15 nM
- EC50 (JJN-3 cells): 41 nM
- EC50 (LP-1 cells): 70 nM

Structure (SMILES): CC(C)c1cn(-c2ccnc(N)n2)c2cc(C#CC(C)(C)O)ncc12 [Compound 22]
- IC50 [1]: 16 nM
- IC50 [2]: 6.5 nM
- EC50 (L-363 cells): 47 nM
- IC50 [3]: 16 nM
- EC50 (JJN-3 cells): 49 nM
- EC50 (LP-1 cells): 131 nM

Structure (SMILES): CN1CCC(c2cn(-c3ccnc(N)n3)c3cc(C#CC(C)(C)O)ncc23)CC1 [Compound 23]
- IC50 [1]: 87 nM
- IC50 [2]: 33 nM
- EC50 (L-363 cells): 92 nM
- IC50 [3]: 35 nM
- EC50 (JJN-3 cells): 116 nM
- EC50 (LP-1 cells): 1920 nM

Structure (SMILES): CN1CCC(c2cn(-c3ccnc(N)n3)c3cc(C#CC4(O)CCCC4)ncc23)CC1 [Compound 24]
- IC50 [1]: 183 nM
- IC50 [2]: 40 nM
- EC50 (L-363 cells): 512 nM
- IC50 [3]: 37 nM
- EC50 (JJN-3 cells): 779 nM
- EC50 (LP-1 cells): 4240 nM

Structure (SMILES): CN1CCC(c2cn(-c3nc(N)ncc3F)c3cc(C#CC(C)(C)O)ncc23)CC1 [Compound 25]
- IC50 [1]: 75 nM
- IC50 [2]: 103 nM
- EC50 (L-363 cells): 105 nM
- IC50 [3]: 95 nM
- EC50 (JJN-3 cells): 130 nM
- EC50 (LP-1 cells): 1040 nM

Structure (SMILES): CC(C)(O)C#Cc1cc2c(cn1)c(CCO)cn2-c1ccnc(N)n1 [Compound 26]
- IC50 [1]: 41 nM
- IC50 [2]: 3.8 nM
- EC50 (L-363 cells): 823 nM
- IC50 [3]: 11 nM
- EC50 (JJN-3 cells): 182 nM
- EC50 (LP-1 cells): 6940 nM

Structure (SMILES): COCCc1cn(-c2ccnc(N)n2)c2cc(C#CC(C)(C)O)ncc12 [Compound 27]
- IC50 [1]: 48 nM
- IC50 [2]: 31 nM
- EC50 (L-363 cells): 194 nM
- IC50 [3]: 33 nM
- EC50 (JJN-3 cells): 145 nM
- EC50 (LP-1 cells): 448 nM

Structure (SMILES): CC(C)(O)C#Cc1cc2c(cn1)c(CCCO)cn2-c1ccnc(N)n1 [Compound 28]
- IC50 [1]: 28 nM
- IC50 [2]: 3.9 nM
- EC50 (L-363 cells): 215 nM
- IC50 [3]: 5.5 nM
- EC50 (JJN-3 cells): 162 nM
- EC50 (LP-1 cells): 4440 nM

Structure (SMILES): CC(C)(O)C#Cc1cc2c(cn1)c(CCCO)cn2-c1nc(N)ncc1F [Compound 29]
- IC50 [1]: 32 nM
- IC50 [2]: 19 nM
- EC50 (L-363 cells): 277 nM
- IC50 [3]: 24 nM
- EC50 (JJN-3 cells): 298 nM
- EC50 (LP-1 cells): 3480 nM

Structure (SMILES): Nc1ncc(F)c(-n2cc(CCCO)c3cnc(C#CC4(O)CCCC4)cc32)n1 [Compound 30]
- IC50 [1]: 38 nM
- IC50 [2]: 6.9 nM
- EC50 (L-363 cells): 1690 nM
- IC50 [3]: 17 nM
- EC50 (JJN-3 cells): 913 nM
- EC50 (LP-1 cells): 4050 nM

Structure (SMILES): CC(C)(O)C#Cc1cc2c(cn1)c(CCC(C)(C)O)cn2-c1ccnc(N)n1 [Compound 31]
- IC50 [1]: 80 nM
- IC50 [2]: 13 nM
- EC50 (L-363 cells): 972 nM
- IC50 [3]: 14 nM
- EC50 (JJN-3 cells): 358 nM
- EC50 (LP-1 cells): 7070 nM

Structure (SMILES): CC(C)(O)CCc1cn(-c2ccnc(N)n2)c2cc(C#CC3(O)CCCC3)ncc12 [Compound 32]
- IC50 [1]: 154 nM
- IC50 [2]: 22 nM
- EC50 (L-363 cells): 1800 nM
- IC50 [3]: 12 nM
- EC50 (JJN-3 cells): 473 nM
- EC50 (LP-1 cells): 6890 nM

Structure (SMILES): CC(C)(O)C#Cc1cc2c(cn1)c(CCC(C)(C)O)cn2-c1nc(N)ncc1F [Compound 33]
- IC50 [1]: 256 nM
- IC50 [2]: 53 nM
- EC50 (L-363 cells): 903 nM
- IC50 [3]: 25 nM
- EC50 (JJN-3 cells): 1730 nM
- EC50 (LP-1 cells): 5350 nM

Structure (SMILES): CC(C)(O)CCc1cn(-c2nc(N)ncc2F)c2cc(C#CC3(O)CCCC3)ncc12 [Compound 34]
- IC50 [1]: 199 nM
- IC50 [2]: 11 nM
- EC50 (L-363 cells): 2240 nM
- IC50 [3]: 13 nM
- EC50 (JJN-3 cells): 1710 nM
- EC50 (LP-1 cells): 3390 nM

Structure (SMILES): CC(C)(O)C#Cc1cc2c(cn1)c(/C=C/C#N)cn2-c1ccnc(N)n1 [Compound 35]
- IC50 [1]: 161 nM
- IC50 [2]: 89 nM
- EC50 (L-363 cells): 959 nM
- IC50 [3]: 49 nM
- EC50 (JJN-3 cells): 420 nM
- EC50 (LP-1 cells): 2060 nM

Structure (SMILES): CC(C)(O)C#Cc1cc2c(cn1)c(CCC#N)cn2-c1ccnc(N)n1 [Compound 36]
- IC50 [1]: 18 nM
- IC50 [2]: 25 nM
- EC50 (L-363 cells): 360 nM
- IC50 [3]: 12 nM
- EC50 (JJN-3 cells): 199 nM
- EC50 (LP-1 cells): 4540 nM
